Test results: ChEMBL document CHEMBL1156341, “Synthesis of new artemisinin analogues from artemisinic acid modified at C-3 and C-13 and their antimalarial activity” (J Nat Prod, 2001)
≈ marks a conversion by molar mass, not a printed value.

Columns and labels:
Plasmodium falciparum [1] = experiment: Antimalarial activity against chloroquine-sensitive Plasmodium falciparum D6; assay type: functional, organism-based
Plasmodium falciparum [2] = experiment: Antimalarial activity against chloroquine-resistant Plasmodium falciparum W2; assay type: functional, organism-based
[3] = Cytotoxicity against human vinblastine-resistant KBVIN cells in presence of vinblastine; assay type: functional, cell-based

SMILES	IC50 (Plasmodium falciparum [1])	IC50 (Plasmodium falciparum [2])	IC50 [3]
C[C@@H]1CC[C@H]2[C@@H](CC#N)C(=O)O[C@@H]3O[C@@]4(C)CC[C@@H]1[C@]32OO4	0.0184 µg/mL (≈ 0.0599 µM)	8.4 ng/mL (≈ 0.0273 µM)	–
CCS(=O)(=O)C[C@H]1C(=O)O[C@@H]2O[C@@]3(C)CC[C@H]4[C@H](C)CC[C@@H]1[C@@]24OO3	> 0.5 µg/mL	> 500 ng/mL	–
CC(=O)O[C@@H]1C[C@H]2[C@H](C)CC[C@H]3[C@@H](C)C(=O)O[C@@H]4O[C@]1(C)OO[C@]423	0.0111 µg/mL (≈ 0.0326 µM)	2.07 ng/mL (≈ 0.00608 µM)	–
C[C@@H]1CC[C@H]2[C@@H](CC[N+](=O)[O-])C(=O)O[C@@H]3O[C@@]4(C)CC[C@@H]1[C@]32OO4	0.00068 µg/mL (≈ 0.00199 µM)	0.26 ng/mL (≈ 0.000762 µM)	5.1 ng/mL
C=C[C@H]1CN2CC[C@H]1C[C@H]2[C@H](O)c1ccnc2ccc(OC)cc12 [QUININE]	0.0196 µg/mL (≈ 0.0604 µM)	102 ng/mL (≈ 0.314 µM)	–
COC[C@H]1C(=O)O[C@@H]2O[C@@]3(C)CC[C@H]4[C@H](C)CC[C@@H]1[C@@]24OO3	0.075 µg/mL (≈ 0.24 µM)	59 ng/mL (≈ 0.189 µM)	–
COC(=O)C[C@H]1C(=O)O[C@@H]2O[C@@]3(C)CC[C@H]4[C@H](C)CC[C@@H]1[C@@]24OO3	0.046 µg/mL (≈ 0.135 µM)	33 ng/mL (≈ 0.097 µM)	–
C[C@@H]1CC[C@H]2C(=C3CC3)C(=O)O[C@@H]3O[C@@]4(C)CC[C@@H]1[C@]32OO4	0.0062 µg/mL (≈ 0.0202 µM)	4.3 ng/mL (≈ 0.014 µM)	–
OC(c1cc(C(F)(F)F)nc2c(C(F)(F)F)cccc12)C1CCCCN1 (centres undefined) [MEFLOQUINE]	–	3.6 ng/mL (≈ 0.00952 µM)	–
C[C@@H]1CC[C@H]2[C@@H](C)C(=O)O[C@@H]3O[C@@]4(C)CC[C@@H]1[C@]32OO4 [ARTEMISININ]	–	0.2 ng/mL (≈ 0.000708 µM)	–
